Test results published in patent US20050260126A1 (priority 2002, published 2005).
Where a name gives a salt, the structure may show the parent alone. Read-outs that look alike come from different tables or passages of the source.

How the values were obtained:
[1] = system: abnormal prion proteins (kuru plaques) in brain sections of GSS patients; parameters: species or system human; details: GSS patient brain sections, 10-200 μM in 50% ethanol, 30 minutes
[2] = system: abnormal prion proteins in ScN2a cells with persistent infection of scrapie; assay: cells; type: cell-based, mouse; details: for IC50: Mus musculus, ScN2a, 96 h, read-out: Inhibitory effects on producing abnormal prion protein IC50; for Inhibitory effects on producing abnormal prion proteins (in words): ScN2a cells
[3] = Slc:ICR, mouse, not told, iv
ScN2a cells = details: for Concentration of inhibiting cell proliferation TC: mouse
in vivo = details: male, Crj:CD1, mouse, iv
[4] = system: abnormal prion proteins in ScN2a cells with persistent infection of scrapie; details: read-out: Inhibitory effects on producing abnormal prion protein IC50 (quinacrine, literature), Doh-ura et al. 2000; cited from earlier work

Row | SMILES | Detection of spotted depositions of abnormal prion proteins (fluorescent signals) [1] | IC50 [2] [nM] | Permeability into the brain: content in Brain [3] | Permeability into the brain: content in Plasma [3] | Concentration of inhibiting cell proliferation TC (ScN2a cells) [µM] | MTD (in vivo) [mg/kg] | Inhibitory effects on producing abnormal prion proteins (in words) [2] | TC and safety concentration margin (in words) (ScN2a cells) | IC50 [4] [nM]
1 | CCN(CC)c1ccc(/C=C/c2nc3ccccc3s2)cc1 [BF-124, 4-[2-(2-benzothiazolyl)-ethenyl]-N,N-diethyl-benzenamine hydrochloride] | spotted fluorescent signals were observed | 100 | 2.4 % ID/g or ml | 1.6 % ID/g or ml | 100 | ≥ 10 | – | – | –
2 | CCN(CC)c1ccc(/C=C/c2nc3ccccc3o2)cc1 [BF-125, 4-[2-(2-benzoxazolyl)ethenyl]-N,N-diethyl benzeneamine hydrochloride] | spotted fluorescent signals were observed | 100 | 3.0 % ID/g or ml | 2.5 % ID/g or ml | 50 | ≥ 10 | – | – | –
3 | CCN(CC)c1ccc(/C=C/c2nc3ccccc3[nH]2)cc1 [BF-126, 4-[2-(2-benzimidazole)-ethenyl]-N,N-diethyl-benzenamine p-toluenesulfonate] | spotted fluorescent signals were observed | 100 | 7.2 % ID/g or ml | 2.7 % ID/g or ml | 25 | ≥ 10 | – | – | –
4 | CN(C)c1ccc(/C=C/c2nc3cc(F)ccc3o2)cc1 [BF-133, 2-(4-dimethylamino) styryl-5-fluoro-benzoxazole] | spotted fluorescent signals were observed | 5 | 5.5 % ID/g or ml | 1.3 % ID/g or ml | 50 | – | – | – | –
5 | CNc1ccc(/C=C/c2nc3cc(F)ccc3o2)cc1 [BF-145, 2-(4-methylamino)-stryl-5-fluoro-benzoxazole] | spotted fluorescent signals were observed | 5 | 4.4 % ID/g or ml | 1.2 % ID/g or ml | 50 | ≥ 10 | – | – | –
6 | CN(C)c1ccc2cc(-c3nc4cc(F)ccc4s3)ccc2c1 [BF-154, 5-fluoro-2-(6-dimethyl-aminonaphthalen-2-yl)benzothiazole] | spotted fluorescent signals were observed | – | 1.1 % ID/g or ml | 1.4 % ID/g or ml | – | – | – | – | –
7 | CNc1ccc(/C=C/c2nc3ccc(O)cc3o2)cc1 [BF-165, 2-(4-methylamino)-styl-6-hydroxy-benzoazole] | spotted fluorescent signals were observed | 10 | 7.2 % ID/g or ml | 1.9 % ID/g or ml | 100 | ≥ 10 | – | – | –
8 | CCN(CC)c1ccc(/C=C/c2nc3cc(F)ccc3[nH]2)cc1 [BF-166, 2-(4-diethylamino)-styryl-5-fluoro-benzimidazole] | spotted fluorescent signals were observed | 10 | – | – | 10 | < 10 | – | – | –
9 | CNc1ccc(/C=C/c2nc3ccc(OCCF)cc3o2)cc1 [BF-168, 6-(2-fluoroethoxy)-2-[2-(4-methylamino-phenyl)ethenyl]-benzoxazole] | spotted fluorescent signals were observed | 1 | – | – | 10 | ≥ 10 | highly inhibitory effects | – | –
10 | CNc1ccc(/C=C/c2nc3ccccc3o2)cc1 [BF-169, 2-(4-methylamino)-styrylbenzoxazole] | spotted fluorescent signals were observed | 10 | – | – | 100 | ≥ 10 | – | – | –
11 | CN(C)c1ccc(/C=C/c2ccc3ccccc3n2)cc1 [BF-179, 2-[2-(4-dimethylamino-phenyl)ethenyl]-quinoline] | spotted fluorescent signals were observed | 5 | 4.3 % ID/g or ml | 1.7 % ID/g or ml | 5 | ≥ 10 | – | – | –
12 | CN(C)c1ncc(/C=C/c2nc3ccc(OCCF)cc3o2)s1 [BF-227, 2-[2-(2-dimethylamino-thiazol-5-yl)ethenyl]-6-(2-fluoroethoxy) benzoxazole] | spotted fluorescent signals were observed | 4 | 7.9 % ID/g or ml | 2.1 % ID/g or ml | 10 | ≥ 10 | – | – | –
13 | CN(C)c1ccc(/C=C/c2nc3ccccc3o2)cc1 [Compound N-282, 2-(4-dimethylamino) styrylbenzoxazole] | spotted fluorescent signals were observed | 50 | 4.0 % ID/g or ml | 0.7 % ID/g or ml | 50 | – | – | – | –
14 | CN(C)c1ccc(-c2ccc3ccccc3n2)cc1 [Compound N-310, 2-[(4-dimethylamino)-phenyl]quinoline] | spotted fluorescent signals were observed | 5 | 15 % ID/g or ml | 1.0 % ID/g or ml | 50 | – | – | – | –
15 | CCN(CC)c1ccc(-c2ccc3ccccc3n2)cc1 [Compound N-313, 2-[(4-diethylamino)-phenyl]quinoline] | spotted fluorescent signals were observed | 500 | 4.6 % ID/g or ml | 1.1 % ID/g or ml | 50 | – | – | – | –
16 | C(=C\c1nc2ccccc2o1)/c1ccccc1 [Compound N-407, 2-(2-phenylethenyl)-benzoxazole] | spotted fluorescent signals were observed | 1 | 16.0 % ID/g or ml | 1.3 % ID/g or ml | 100 | ≥ 10 | highly inhibitory effects | higher TCs, therefore higher safety concentration margins | –
17 | C(=C\c1nc2ccccc2s1)/c1ccccc1 [Compound N-438, 2-(2-phenylethenyl)-benzothiazole] | spotted fluorescent signals were observed | 10 | 11 % ID/g or ml | 1.9 % ID/g or ml | 100 | ≥ 10 | – | – | –
18 | Cc1ccc2sc(/C=C/c3ccc(Cl)cc3)nc2c1 [Compound N-441, 2-[2-(4-chlorophenyl)ethenyl]-5-methyl-benzothiazole] | spotted fluorescent signals were observed | 1 | 5.6 % ID/g or ml | 2.7 % ID/g or ml | 100 | ≥ 10 | highly inhibitory effects | higher TCs, therefore higher safety concentration margins | –
19 | CCN(CC)CCCC(C)Nc1c2ccc(Cl)cc2nc2ccc(OC)cc12 (centres unmarked) [quinacrine] | – | – | – | – | – | – | – | – | 400
